From US9481646B2, “Low calcemic, highly antiproliferative, analogs of calcitriol” (The Johns Hopkins University, priority 2007, dated 2016)
pIC50: −log10 of the molar value.

What was measured:
murine keratinocytes = test: antiproliferative activity in murine keratinocytes (standard in vitro protocol); type: cell-based; conditions: Mus musculus, Keratinocyte, read-out: Antiproliferative IC50
[1] = in vivo calciuric activity, calcium levels in rat urine; conditions: relative activity (A = 1)
human recombinant VDR = target: T1, human recombinant VDR (Homo sapiens, UniProt P11473); test: competitive binding to the human VDR
T1 construct: purchased Biomol SE-140
T1 sequence (P11473 1-427): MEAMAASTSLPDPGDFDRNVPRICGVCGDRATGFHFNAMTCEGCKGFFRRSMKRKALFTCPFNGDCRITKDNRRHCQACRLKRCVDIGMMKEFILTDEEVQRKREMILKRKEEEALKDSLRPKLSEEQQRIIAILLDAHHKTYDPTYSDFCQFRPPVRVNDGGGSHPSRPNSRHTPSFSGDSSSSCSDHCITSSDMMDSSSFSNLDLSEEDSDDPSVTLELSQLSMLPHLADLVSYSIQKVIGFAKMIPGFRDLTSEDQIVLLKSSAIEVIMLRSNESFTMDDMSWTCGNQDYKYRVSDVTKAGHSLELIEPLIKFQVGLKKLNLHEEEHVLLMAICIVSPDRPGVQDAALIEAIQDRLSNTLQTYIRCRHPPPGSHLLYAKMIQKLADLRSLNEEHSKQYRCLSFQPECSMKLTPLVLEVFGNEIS

| SMILES | pIC50 (murine keratinocytes) | Calciuria Activity Compared to 1 [1] | pIC50 (human recombinant VDR) |
| --- | --- | --- | --- |
| C=C1/C(=C\C=C2/CCC[C@]3(C)[C@@H]([C@H](C)CCCC(C)(C)O)CC[C@@H]23)C[C@@H](O)C[C@@H]1O [A, 1α,25-dihydroxyvitamin D3, reference compound] | 7.10 | 1 | – |
| C=C1/C(=C\C=C2/CCC[C@]3(C)[C@@H]([C@H](C)COCC4=CCCCC4(C)C)CC[C@@H]23)C[C@@H](O)C[C@@H]1O [Analog 1d] | 7.30 | <0.02 | 6.52 |
